Read-outs that look alike come from different tables or passages of the source.
What was measured:
[1] = Double blind, placebo-controlled crossover study of D-cycloserine in schizophrenia (PANSS); format: in vivo, human; details: D-cycloserine 50 mg/day, 6 weeks
[2] = target: T1, GLYT1-mediated synaptosomal glycine transport (Rattus norvegicus, UniProt P28572); assay: Inhibition of [3H]glycine uptake in P2 synaptosomal fractions; format: biochemical, Sprague-Dawley rats; details: 100 μg/ml
T1 construct: Synaptosomal P2 fractions were prepared from cerebral cortex+hippocampus of Sprague-Dawley rats; from tissue; host or cells: rat cerebral cortex + hippocampus, P2 synaptosomal fraction
T1 sequence (P28572 1-638): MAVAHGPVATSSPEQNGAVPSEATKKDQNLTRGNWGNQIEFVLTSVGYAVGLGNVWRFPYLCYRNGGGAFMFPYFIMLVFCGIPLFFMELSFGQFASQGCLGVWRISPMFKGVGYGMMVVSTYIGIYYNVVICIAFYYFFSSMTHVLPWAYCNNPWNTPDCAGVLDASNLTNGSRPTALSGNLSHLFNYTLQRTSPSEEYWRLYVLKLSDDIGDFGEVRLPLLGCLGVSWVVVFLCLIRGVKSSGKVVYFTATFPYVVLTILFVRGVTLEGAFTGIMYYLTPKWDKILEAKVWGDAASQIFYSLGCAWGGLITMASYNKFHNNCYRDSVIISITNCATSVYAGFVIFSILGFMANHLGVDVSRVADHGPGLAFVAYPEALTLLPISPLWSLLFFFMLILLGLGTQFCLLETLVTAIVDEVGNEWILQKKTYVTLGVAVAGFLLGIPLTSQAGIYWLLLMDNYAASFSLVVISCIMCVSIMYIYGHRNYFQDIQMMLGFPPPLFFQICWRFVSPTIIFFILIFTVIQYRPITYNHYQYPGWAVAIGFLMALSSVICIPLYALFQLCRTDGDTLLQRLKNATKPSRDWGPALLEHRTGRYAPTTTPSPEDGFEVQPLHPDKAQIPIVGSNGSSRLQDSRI
Method: Synaptosomal P2 fractions were prepared from cerebral cortex+hippocampus of Sprague-Dawley rats (200-250 g). Brain tissue was homogenized in 0.32 M sucrose in Tris-HCl buffer (pH 7.4), and centrifuged at 1,000×g for 10 min at 4° C. in a Sorvall 5C centrifuge. The supernatant was then centrifuged at 14,000×g for 10 min and the pellet resuspended in artificial CSF having the following composition (mM): NaCl, 125; KCl, 3; MgSO4, 1.2; CaCl2, 1.2; NaH2PO4, 1; NaHCO3, 22; glucose, 10. Homogenate was aerated with 95% O2/5% CO2 until use. 1 ml aliquots of homogenate were preincubated with specific concentrations of glycineamide derivatives, following which incubation was initiated by the addition of 10 μl of 10 μM [^3H]glycine (DuPont/NEN or Sigma, spec. act.≈45 Ci/mmol) to obtain a final concentration of 100 nM. Nonspecific binding was determined in the presence of 10 mM sarcosine. Following 5 min, incubation was terminated by filtration under reduced pressure using a Brandel 24-well cell harvester and Whatman GF-B filters. Radioactivity was determined by scintillation counter with approximate efficiency of 50%.

[3] = test system: PCP-induced hyperactivity; assay: Inhibition of PCP-induced locomotor hyperactivity; format: in vivo, BALB/c mice; details: for inhibition of PCP-induced hyperactivity: 100 mg/kg i.p. pretreatment, summed activity over 90 min
Method: (§1) Behavioral studies were performed using BALB/c mice (25 g) of either sex. Rodent activity was monitored using a photocell-based activity meter (Columbus Instruments Auto-Track System, Columbus, Ohio). Animals were placed in test cages and allowed to accommodate overnight. […] 30 min. after pretreatment, animals were injected with either PCP (5 mg/kg i.p.) or amphetamine (5 mg/kg s.c.). Activity was then monitored for an additional 90 minutes. For statistical analyses, summed activity over the 90 min. following PCP/amphetamine injection was used as a measure of drug-induced hyperactivity.

[4] = test system: PCP-induced hyperactivity; details: cited from earlier work
[5] = test system: amphetamine-induced hyperactivity; assay: Effect on amphetamine-induced locomotor hyperactivity; format: in vivo, BALB/c mice; details: GDA 50 mg/kg i.p.; amphetamine 5 mg/kg
Method: as §1

## N[C@@H]1CONC1=O [D-cycloserine]
[1]
  change in general psychopathology scores (PANSS): did not change significantly
  change in positive symptoms (PANSS): did not change significantly
  mean decrease in negative symptoms: 9.2%
[1]; mean±SD
  reduction in negative symptoms (PANSS): 3.6±3.7 point

## CCCCCCCCNC(=O)CN [G8A, glycyloctylamide]
[2]
  effect on GLYT1-mediated transport at single fixed concentration: no significant effect

## CCCCCCCCCCNC(=O)CN [G10A, glycyldecylamide]
[3]; PCP 5 mg/kg i.p.
  inhibition of PCP-induced hyperactivity: Significant reductions
[2]
  effect on GLYT1-mediated transport at single fixed concentration: significant inhibition

## CCCCCCCCCCCNC(=O)CN [G11A, glycylundecylamide]
[2]
  effect on GLYT1-mediated transport at single fixed concentration: significant inhibition

## CCCCCCCCCCCCCNC(=O)CN [G13A, glycyltriscadecylamide]
[3]; PCP 5 mg/kg i.p.
  inhibition of PCP-induced hyperactivity: Significant reductions
[2]
  effect on GLYT1-mediated transport at single fixed concentration: significant inhibition

## CCCCCCCCCCCCNC(=O)CN [GDA, glycyldodecylamide]
[4]; early preclinical studies
  potency in reversing PCP-induced hyperactivity relative to glycine (Toth et al., 1986): significantly more potent than glycine
[4]; i.p., prior studies
  doses inhibiting PCP-induced hyperactivity (prior studies): 50 to 200 mg/kg
[5]
  effect on hyperactivity induced by amphetamine: not significantly altered
[3]; 50 mg/kg, PCP 5 mg/kg i.p.
  PCP-induced hyperactivity, % of control (PCP alone) levels: below 70 % of control
[3]; PCP 5 mg/kg i.p.
  inhibition of PCP-induced hyperactivity: Significant reductions
[3]; 100 mg/kg, PCP 5 mg/kg i.p.
  PCP-induced hyperactivity, % of control (PCP alone) levels: below 50 % of control
[3]; GDA 50 mg/kg i.p., PCP 5 mg/kg i.p.
  effect on hyperactivity induced by PCP: significantly reduced
[3]; GDA pretreatment 50 mg/kg i.p.
  effect on basal activity: did not significantly affect
[2]
  effect on GLYT1-mediated transport at single fixed concentration: significant inhibition

## NCC(=O)O [glycine]
Beginning to end of glycine treatment
  change in positive symptoms (PANSS): did not change significantly
End of glycine treatment (beginning 25.7±7.0), mean±SD
  positive symptoms score at end of treatment: 22.0±4.0 points
End of glycine treatment (from 56.0±19.4), mean±SD
  general psychopathology score at end of treatment: 43.0±13.8 points
Glycine 0.8 g/kg/day, 6 weeks
  decrease in general psychopathology symptoms: 23.2%
  mean reduction in negative symptoms: 28.5%
Glycine 0.8 g/kg/day, 6 weeks, 7 neuroleptic-resistant schizophrenia subjects, mean±SD
  reduction in negative symptoms (PANSS): 11.3±3.6 point
Glycine 0.8 g/kg/day, 6 weeks, mean±SD
  change in general psychopathology (PANSS): 13.0±7.7 point
Same subjects, change scores compared across the two trials
  degree of reduction in negative symptoms relative to D-cycloserine treatment: 3 fold

## glycylhexylamide [G6A]
[4]; literature
  inhibition of PCP-induced hyperactivity (early study, Toth et al., 1986): not to significantly inhibit
[3]; PCP 5 mg/kg i.p.
  inhibition of PCP-induced hyperactivity: did not significantly inhibit
[2]
  effect on GLYT1-mediated transport at single fixed concentration: significant potentiation

From US6355681B2, “Glycine substitutes and precursors for treating a psychosis” (Glytech, Inc., priority 1995, dated 2002)
